Laboratory results from patent publication US12384800B2, “Antitumoral compounds” (priority 2017, dated 2025).

Experiments:
[1] = system: HGC27 tumors; experiment: Human gastric xenograft, tumor volume
Experimental: (§1) Female athymic nu/nu mice (Harlan Laboratories Models, S.L. Barcelona, Spain or Envigo, Spain) were utilized for all experiments. Animal were housed in individually ventilated cages Sealsafe® Plus, Techniplast S.P.A.), up to ten per cage on a 12-hour light-dark cycle at 21-23° C. and 40-60% humidity. […] Animals were acclimated for at least 5 days prior to tumor implantation with a tumor cell suspension.
HGC27 cells were maintained in vitro at 37° C. with 5% CO2 in Iscove's Modified Dulbecco's Medium (Sigma Aldrich, Co). Culture cells were passage every 3 to 5 days on reaching confluence. Each animal was subcutaneously implanted (on the right flank using 26G needle and a 1 cc syringe) at 4-6 weeks of age with 5×10^6 HGC-27 cells suspended in 0.05 mL of a solution consisting of 50% Matrigel® (Corning Incorporated Life Sciences), 50% medium without serum or antibiotics.
(§2) Treatment tolerability was assessed by monitoring body weight evolution, clinical signs of systemic toxicity, as well as evidences of local damage in the injection site.
(§3) In Xenograft Studies with Other Cell Lines: • Tumor volume was calculated using the equation (a·b^2)/2, where a: length (longest diameter) and b: width (shortest diameter) were measured in mm by using digital caliper (Fowler Sylvac, S235PAT).
(§4) Treatments producing >20% lethality and/or 20% net body weight loss were considered toxic.

[2] = system: HT1080 tumors; experiment: Human fibrosarcoma xenograft, total diameter (tumor + leg)
[3] = system: MDA-MB-231 tumors; experiment: Human breast xenograft, tumor volume
Experimental: as §1
MDA-MB-231 cells were maintained in vitro at 37° C. with 5% CO2 in Dulbecco's Modified Eagle's Medium (Sigma-Aldrich, Co). Culture cells were passaged every 3 to 5 days upon reaching confluence.
as §2, §3, §4

[4] = system: A2780 tumors; experiment: Human ovarian xenograft, tumor volume
Experimental: as §1
Culture cells were passaged every 3 to 5 days upon reaching confluence. Each animal was subcutaneously implanted (on the right flank using 26G needle and a 1 cc syringe) at 4-6 weeks of age with 10×10^6 A2780 cells suspended in 0.05 mL of a solution consisting of 50% Matrigel® (Corning Incorporated Life Sciences) and 50% medium without serum or antibiotics.
as §2, §3, §4

[5] = system: H460 tumors; experiment: Human lung (NSCLC) xenograft, tumor volume
Experimental: as §1
H460 cells were maintained in vitro at 37° C. with 5% CO2 in Dulbecco's Modified Eagle's Medium (Sigma-Aldrich, Co). Culture cells were passaged every 3 to 5 days upon reaching confluence. Each animal was subcutaneously implanted (on the right flank using 26G needle and a 1 cc syringe) at 4-6 weeks of age with 5×10^6 H460 cells suspended in 0.05 mL of a solution consisting of 50% Matrigel® (Corning Incorporated Life Sciences) and 50% medium without serum or antibiotics.
as §2, §3, §4
Tables and figures summarize the data obtained from complete experimental groups, i.e. those groups keeping the initial number of animals, n=8-10.

COc1c(C)cc2c(c1O)[C@@H]1[C@@H]3[C@@H]4SC[C@]5(N[C@H](CO)Cc6c5oc5ccccc65)C(=O)OC[C@@H](c5c6c(c(C)c(OC(C)=O)c54)OCO6)N3[C@@H](O)[C@H](C2)N1C [Compound 39-S]
Median Tumor Volume ([1]; Day 2): 356.3 mm^3 | Median Tumor Volume ([1]; Day 5): 469.7 mm^3 | Median Tumor Volume ([1]; Day 7): 467.8 mm^3 | Median Tumor Volume ([1]; Day 9): 575.2 mm^3 | Median Tumor Volume ([1]; Day 12): 611.1 mm^3 | Median Tumor Volume ([1]; Day 14): 637.3 mm^3 | Median Tumor Volume ([1]; Day 16): 690.4 mm^3 | Median Tumor Volume ([1]; Day 19): 701.8 mm^3 | Median Tumor Volume ([1]; Day 21): 697.4 mm^3 | Median Tumor Volume ([1]; Day 23): 715.5 mm^3 | Median Tumor Volume ([1]; Day 26): 898.1 mm^3 | Median Tumor Volume ([1]; Day 28): 1163.4 mm^3 | Median Tumor Volume ([1]; Day 30): 1409.3 mm^3 | Median Tumor Volume ([1]; Day 33): 1450.5 mm^3 | Median Tumor Volume ([1]; Day 35): 1708.5 mm^3 | Median Tumor Volume ([1]; Day 37): 1804.4 mm^3 | Median Tumor Volume ([1]; Day 40): 2075.2 mm^3 | Total diameter (tumor + leg) ([2]; Day 2): 7.9 mm | Total diameter (tumor + leg) ([2]; Day 5): 6.4 mm | Total diameter (tumor + leg) ([2]; Day 7): 6.8 mm | Total diameter (tumor + leg) ([2]; Day 9): 6.9 mm | Total diameter (tumor + leg) ([2]; Day 12): 6.6 mm | Total diameter (tumor + leg) ([2]; Day 14): 6.4 mm | Total diameter (tumor + leg) ([2]; Day 16): 6.8 mm | Total diameter (tumor + leg) ([2]; Day 19): 7.0 mm | Total diameter (tumor + leg) ([2]; Day 21): 7.0 mm | Total diameter (tumor + leg) ([2]; Day 23): 8.5 mm | Total diameter (tumor + leg) ([2]; Day 27): 10.8 mm | Total diameter (tumor + leg) ([2]; Day 33): 14.3 mm | Total diameter (tumor + leg) ([2]; Day 35): 15.3 mm | Total diameter (tumor + leg) ([2]; Day 37): 18.0 mm | Median Tumor Volume ([3]; Day 2): 209.3 mm^3 | Median Tumor Volume ([3]; Day 5): 290.9 mm^3 | Median Tumor Volume ([3]; Day 7): 301.8 mm^3 | Median Tumor Volume ([3]; Day 9): 300.8 mm^3 | Median Tumor Volume ([3]; Day 12): 278.7 mm^3 | Median Tumor Volume ([3]; Day 14): 249.7 mm^3 | Median Tumor Volume ([3]; Day 16): 243.6 mm^3 | Median Tumor Volume ([3]; Day 19): 248.3 mm^3 | Median Tumor Volume ([3]; Day 21): 250.0 mm^3 | Median Tumor Volume ([3]; Day 23): 260.3 mm^3 | Median Tumor Volume ([3]; Day 26): 304.9 mm^3 | Median Tumor Volume ([3]; Day 28): 337.1 mm^3 | Median Tumor Volume ([3]; Day 30): 451.3 mm^3 | Median Tumor Volume ([3]; Day 33): 584.1 mm^3 | Median Tumor Volume ([3]; Day 35): 683.4 mm^3 | Median Tumor Volume ([3]; Day 37): 784.7 mm^3 | Median Tumor Volume ([3]; Day 40): 937.4 mm^3 | Median Tumor Volume ([3]; Day 42): 1060.5 mm^3 | Median Tumor Volume ([3]; Day 44): 1170.5 mm^3 | Median Tumor Volume ([3]; Day 47): 1112.9 mm^3 | Median Tumor Volume ([3]; Day 49): 1138.6 mm^3 | Median Tumor Volume ([3]; Day 51): 1283.2 mm^3 | Median Tumor Volume ([3]; Day 54): 1415.1 mm^3 | Median Tumor Volume ([3]; Day 56): 1518.7 mm^3 | Median Tumor Volume ([3]; Day 58): 1728.5 mm^3 | Median Tumor Volume ([3]; Day 61): 2017.9 mm^3 | Median Tumor Volume ([4]; Day 2): 206.5 mm^3 | Median Tumor Volume ([4]; Day 5): 163.4 mm^3 | Median Tumor Volume ([4]; Day 7): 298.6 mm^3 | Median Tumor Volume ([4]; Day 9): 317.4 mm^3 | Median Tumor Volume ([4]; Day 12): 378.2 mm^3 | Median Tumor Volume ([4]; Day 14): 668.5 mm^3 | Median Tumor Volume ([4]; Day 16): 853.5 mm^3 | Median Tumor Volume ([4]; Day 19): 1415.5 mm^3 | Median Tumor Volume ([4]; Day 21): 1519.2 mm^3 | Median Tumor Volume ([4]; Day 23): 1666.0 mm^3 | Median Tumor Volume ([4]; Day 30): 2025.0 mm^3 | Median Tumor Volume ([5]; Day 2): 314.4 mm^3 | Median Tumor Volume ([5]; Day 5): 584.1 mm^3 | Median Tumor Volume ([5]; Day 7): 831.2 mm^3 | Median Tumor Volume ([5]; Day 9): 841.0 mm^3 | Median Tumor Volume ([5]; Day 12): 1008.0 mm^3 | Median Tumor Volume ([5]; Day 14): 1309.8 mm^3 | Median Tumor Volume ([5]; Day 16): 1470.0 mm^3 | Median Tumor Volume ([5]; Day 19): 2025.0 mm^3

COc1c(C)cc2c(c1O)[C@@H]1[C@@H]3[C@@H]4SC[C@]5(N[C@@H](CN)Cc6c5oc5ccccc65)C(=O)OC[C@@H](c5c6c(c(C)c(OC(C)=O)c54)OCO6)N3[C@@H](O)[C@H](C2)N1C [Compound 47-R]
Median Tumor Volume ([1]; Day 2): 359.4 mm^3 | Median Tumor Volume ([1]; Day 5): 774.8 mm^3 | Median Tumor Volume ([1]; Day 7): 1155.4 mm^3 | Median Tumor Volume ([1]; Day 9): 1474.7 mm^3 | Median Tumor Volume ([1]; Day 12): 1870.2 mm^3 | Median Tumor Volume ([1]; Day 14): 2031.3 mm^3 | Median Tumor Volume ([1]; Day 16): 2075.2 mm^3 | Total diameter (tumor + leg) ([2]; Day 2): 8.9 mm | Total diameter (tumor + leg) ([2]; Day 5): 10.1 mm | Total diameter (tumor + leg) ([2]; Day 7): 10.5 mm | Total diameter (tumor + leg) ([2]; Day 9): 11.5 mm | Total diameter (tumor + leg) ([2]; Day 12): 13.5 mm | Total diameter (tumor + leg) ([2]; Day 14): 13.9 mm | Total diameter (tumor + leg) ([2]; Day 16): 14.6 mm | Total diameter (tumor + leg) ([2]; Day 19): 18.0 mm | Median Tumor Volume ([3]; Day 2): 225.3 mm^3 | Median Tumor Volume ([3]; Day 5): 323.2 mm^3 | Median Tumor Volume ([3]; Day 7): 405.0 mm^3 | Median Tumor Volume ([3]; Day 9): 495.9 mm^3 | Median Tumor Volume ([3]; Day 12): 594.1 mm^3 | Median Tumor Volume ([3]; Day 14): 769.5 mm^3 | Median Tumor Volume ([3]; Day 16): 1009.5 mm^3 | Median Tumor Volume ([3]; Day 19): 1298.0 mm^3 | Median Tumor Volume ([3]; Day 21): 1580.7 mm^3 | Median Tumor Volume ([3]; Day 23): 2006.5 mm^3 | Median Tumor Volume ([3]; Day 26): 2032.1 mm^3 | Median Tumor Volume ([4]; Day 2): 280.6 mm^3 | Median Tumor Volume ([4]; Day 5): 653.9 mm^3 | Median Tumor Volume ([4]; Day 7): 848.7 mm^3 | Median Tumor Volume ([4]; Day 9): 1569.1 mm^3 | Median Tumor Volume ([4]; Day 12): 1764.0 mm^3 | Median Tumor Volume ([4]; Day 14): 1666.0 mm^3 | Median Tumor Volume ([4]; Day 16): 2025.0 mm^3 | Median Tumor Volume ([5]; Day 2): 508.1 mm^3 | Median Tumor Volume ([5]; Day 5): 979.3 mm^3 | Median Tumor Volume ([5]; Day 7): 1280.0 mm^3 | Median Tumor Volume ([5]; Day 9): 1543.1 mm^3 | Median Tumor Volume ([5]; Day 12): 1764.0 mm^3 | Median Tumor Volume ([5]; Day 14): 1845.5 mm^3
